Patent US20090227632A1, “PHARMACEUTICAL COMPOSITION COMPRISING, IN COMBINATION, SAREDUTANT AND A SELECTIVE SEROTONIN REUPTAKE INHIBITOR OR A SEROTONIN/NOREPINEPHRINE REUPTAKE INHIBITOR” (priority 2006, published 2009)

Tested on: rat
Test: DRL-72 s (Differential Reinforcement of Low-rate-72 seconds) in-vivo rat test
Settings: for % reinforced presses/total number of presses: n = 8 rats, test duration 1 hour, mean±SEM, solvent control 3.07 ± 0.48%; for minimum active dose in the DRL-72 s test: compound alone, intraperitoneally, rat
Text: The in-vivo rat test DRL-72 s (Differential Reinforcement of Low-rate-72 seconds) is used according to the technique described by C. Louis et al., Neuropsychopharmacology, 2006, 1-8.
Effects compared with regard to the percentage of rewards obtained (reinforced presses) with respect to the total number of presses by the rat after intraperitoneal administration of the compound A alone, of the compound B alone and of the compound A+compound B combination versus the control (solvent alone).
Beforehand, the minimum active doses of the compound A alone and of the compound B alone in the DRL-72 s test were determined, namely: • compound A: 10 mg/kg intraperitoneally; • compound B: 5 mg/kg intraperitoneally.
The compound A alone at the dose of 3 mg/kg and the compound B alone at the dose of 2.5 mg/kg were dissolved in a 0.9% (weight/volume) aqueous sodium chloride solution comprising 0.1% (v/v) Tween 80® and administered intraperitoneally at a final volume of 1 ml/kg.
The combination was administered intraperitoneally by two simultaneous administrations of the compound A (3 mg/kg) and then of the compound B (2.5 mg/kg).
The doses of the compounds are expressed in the free base form.
For the requirements of the test, the effect of the compound A alone, the effect of the compound B alone and the effect of the compound A+compound B combination, compared with the effect of the solvent (control), are measured for each animal.
Each rat (n=8) thus receives four injections spread out over time, namely the solvent (control), the compound A alone, the compound B alone and the compound A+compound B combination.
The results obtained are collated in Table I and are expressed as a percentage of rewards obtained with respect to the total number of presses over the duration of the test (1 hour), in the mean±SEM (standard error of the mean) form.

Row | Structure (SMILES) | percentage number of rewards obtained with respect to the control (in words) (compound A alone 3 mg/kg i.p., increase not statistically significant) | % reinforced presses/total number of presses (compound A alone 3 mg/kg intraperitoneally) | minimum active dose in the DRL-72 s test | percentage number of rewards obtained with respect to the control (in words) (compound B alone 2.5 mg/kg i.p.) | % reinforced presses/total number of presses (compound B alone 2.5 mg/kg intraperitoneally)
1 | CC(=O)NC1(c2ccccc2)CCN(CC[C@H](CN(C)C(=O)c2ccccc2)c2ccc(Cl)c(Cl)c2)CC1 [Compound A, (S)-(−)-N-[4-(4-Acetamido-4-phenylpiperidin-1-yl)-2-(3,4-dichlorophenyl)butyl]-N-methylbenzamide] | only slightly modifies | 6.41 ± 1.73% | 10 mg/kg |  | 
2 | CNCCC(Oc1ccc(C(F)(F)F)cc1)c1ccccc1 (racemic) [Compound B, (±)-N-methyl-3-phenyl-3-[4-(trifluoromethyl)phenoxy]propan-1-amine] |  |  | 5 mg/kg | does not modify | 3.82 ± 0.76%
